Results: US11845782B2, “Relaxin fusion polypeptides and uses thereof” (MedImmune Limited, priority 2017, dated 2023)
Residue numbers refer to the chain shown, from its start.

B1: Fc-YTE-hRLX2-15-15AA: As Fc_hRLX2_15-15AA with YTE mutations in Fc; SEQ ID NO. 22 (protein)
chain: DKTHTCPPCPAPELLGGPSVFLFPPKPKDTLYITREPEVTCVVVDVSHEDPEVKFNWYVDGVEVHNAKTKPREEQYNSTYRVVSVLTVLHQDWLNGKEYKCKVSNKALPAPIEKTISKAKGQPREPQVYTLPPSRDELTKNQVSLTCLVKGFYPSDIAVEWESNGQPENNYKTTPPVLDSDGSFFLYSKLTVDKSRWQQGNVFSCSVMHEALHNHYTQKSLSLSPGKGGGGSGGGGSGGGGSQLYSALANKCCHVGCTKRSLARFCGGGGSGGGGSGGGGSSWMEEVIKLCGRELVRAQIAICGMSTWS
modifications: fusion protein
B2: Fc-YTE-FQQ_hRLX2_15-15A: As Fc_hRLX2_15-15AA with YTE and FQQ mutations in Fc; SEQ ID NO. 26 (protein)
chain: B1 chain with L14F, L15Q, K102Q
modifications: fusion protein
B3: Fc-YTE-TM_hRLX2_15-15A: As Fc_hRLX2_15-15AA with YTE and TM mutations in Fc; SEQ ID NO. 24 (protein)
chain: B1 chain with L14F, L15E, P111S
modifications: fusion protein

Experiments:
[1] = system: isoproterenol-induced cardiac hypertrophy; assay: Isoproterenol-induced cardiac hypertrophy and fibrosis in mice (Example 8); assay type: in vivo, C57BL/6J male mice; conditions: given concomitantly with isoproterenol 15 mg/kg/day, 2 weeks
Procedure: A total of 6 study groups with n=8 mice (C57BL/6J male mice) per group were performed. The groups were: vehicle, Fc_hRLX2_15-15AA, isoproterenol, isoproterenol+enalapril, isoproterenol+recombinant human relaxin 2, and isoproterenol+Fc_hRLX2_15-15AA. Drugs and vehicle were delivered by Alzet minipumps (model 1002; rate: 0.25 μl/hr (±0.05), 6 μl one day @37° C.) or subcutaneous injection for Fc_hRLX2_15-15AA.
Isoproterenol was made as follows: A 500 mM solution (123.9 mg/ml) freshly in 0.0002% Na-Asc saline, […] filtered). The final [Iso] concentration in minipump: 15 mg/kg/day=15 mg/247.72/6 μl/1000 g=10.1 mM per gram of body weight (BVV). Vehicle was 0.0002% Na-ascorbate, Sigma catalog #A7631.
Enalapril was made as follows: Enalapril is used as maleate salt, MW of 492.52, Sigma catalog #E6888. A 200 mM stock solution (98.5 mg/ml) freshly in methanol, […] filtered. The final concentration in minipump: 2.5 mg/kg/day=2.5 mg/492.52/6 μl/1000 g=0.846 mM per gram of body weight (BVV), i.e., one minipump for 30 gram of mouse will need 19.0 μl of 200 mM Ena (150 μl×0.846/200 mM×30 g BW).
Isoproterenol+Enalapril: Isoproterenol and enalapril made as described above were included in the pump.
At the end of the study, body weight, heart weight, lung weight, and tibia length were measured. Additionally, histology and collagen assays were performed using the heart samples.
Fibrosis was measured based on the detection of hydroxyproline (Total collagen assay, QuickZyme Biosciences). Histology (H & E and Masson Trichrome) was also carried out on formalin treated heart tissue following 2 weeks of treatments.

[2] = system: VEGF expression in THP-1 cells; assay: VEGF mRNA induction in THP-1 cells, quantitative real-time PCR (Example 4); assay type: cell-based, human; conditions: 0.01, 0.06, and 10 ng/ml; 2.5 h
Procedure: The ability of the Relaxin 2 fusion polypeptides to induce the expression of VEGF, a known downstream target of Relaxin 2 (Xiao et al., 2013), was assayed. The expression of VEGF RNA in THP-1 cells (Catalogue number TIB-202, ATCC) was analyzed by quantitative real-time PCR. A total of […] was seeded in a 24-well flat bottom plate (Catalogue number 353226, Corning) in 400 μl test media (RPMI-1640 without phenol red, 0.5% FBS, 1% Pen/Strep and 0.05 mM of 2-mercaptoethanol). After 24 h incubation at 37° C., 5% CO2, human relaxin-2 (Catalogue number 3956-RN, R&D Systems) or Fc-hRelaxin-2 fusion polypeptides, were added to the cells in the plate for 2.5 h at 37° C. RNA isolation and purification from THP-1 cells was performed using Qiagen's QiaShredder (Catalogue number 79656, Qiagen) and RNA Plus Mini Kit (Catalogue number 74134, Qiagen), following the manufacturer's protocol. The mRNA concentrations were measured by NanoDrop (Thermofisher) and samples were normalized to the same starting concentration (range between RT-PCR set up; 50-20 ng/μl). […] The relative fold change in VEGF mRNA level was calculated by the comparative Ct method using GAPDH expression for normalization. Results were calculated as fold changes over no treatment control. […] Data was analyzed by paired two tailed t-test utilizing Prism GraphPad, V6.

[3] = intravenous administration, cited from earlier work
[4] = Mouse PK profile, FcRn transgenic mouse, Fc capture and Relaxin detection ELISA (Example 6); assay type: in vivo; conditions: IV or SC, 6 mg/kg

Molecule	isoproterenol-induced increase in cardiac hypertrophy (HW/TL) [1]	isoproterenol-induced increase in fibrosis (collagen content) [1]	half-life offered by the YTE mutations [4]	also measured
CCOC(=O)[C@H](CCc1ccccc1)N[C@@H](C)C(=O)N1CCC[C@H]1C(=O)O [enalapril]	significantly attenuated	significantly attenuated		
rhRLX2: Recombinant human Relaxin-2, R&D Systems (catalogue 6586-RN-025; 3956-RN in VEGF assay), positive control; mature A/B chain array (chain 1 QLYSALANKCCHVGCTKRSLARFC; chain 2 DSWMEEVIKLCGRELVRAQIAICGMSTWS)	significantly attenuated	significantly attenuated		VEGF transcripts in THP-1 cells vs no treatment control [2]: significantly increased
serelaxin				proportion of patients with significant blood pressure drop (>40 mm Hg) [3]: approximately one third; markers of cardiac, renal and hepatic damage and congestion ([3]; patients): improved
B1			extended half-life	
B2			extended half-life	
B3			extended half-life	
